Measured values as given in article PMC12475274, “Harnessing indole scaffolds to identify small-molecule IRE1α inhibitors modulating XBP1 mRNA splicing” (Nature Communications, 2025).
Values joined by “and” are separate entries in the source; they are usually repeats but may differ in a detail not shown here. Equal values may be shown once.

Experiments:
[1] = molecular target: T1, dephosphorylated IRE1α (547–977) (Homo sapiens, UniProt O75460); assay: FRET-based IRE1α RNase activity assay, dephosphorylated IRE1α; assay type: biochemical; conditions: for inhibition at 50 µM: FRET assay at 50 μM, mean (± SEM), read-out: IRE1α inhibition%
T1 construct: Human IRE1α kinase and RNase domain (residues 547–977) was subcloned into pLIB plasmid; His tag (with TEV cleavage site) (N, cleaved yes); made in house; host or cells: Sf9 insect cells, baculovirus (Bac-to-Bac)
T1 sequence (O75460 547-977): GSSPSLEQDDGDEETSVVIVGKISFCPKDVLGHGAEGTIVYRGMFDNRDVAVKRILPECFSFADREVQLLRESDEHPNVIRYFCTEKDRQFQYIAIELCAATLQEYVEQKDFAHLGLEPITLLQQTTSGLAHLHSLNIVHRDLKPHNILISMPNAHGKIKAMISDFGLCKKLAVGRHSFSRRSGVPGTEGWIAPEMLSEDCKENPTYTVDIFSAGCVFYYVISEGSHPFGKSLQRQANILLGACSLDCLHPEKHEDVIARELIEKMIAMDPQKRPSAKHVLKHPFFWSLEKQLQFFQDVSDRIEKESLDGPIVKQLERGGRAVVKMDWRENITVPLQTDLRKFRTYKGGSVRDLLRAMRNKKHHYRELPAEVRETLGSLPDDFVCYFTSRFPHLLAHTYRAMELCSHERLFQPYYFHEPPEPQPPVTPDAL
Description: (§1) Human IRE1α kinase and RNase domain (residues 547–977) was subcloned into pLIB plasmid with a His tag and TEV cleavage site, and expressed using Bac-to-Bac expression system. The primers used are listed in Supplementary Table S3. The protein purification was performed following established procedures. Briefly, Sf9 cells were infected with baculovirus and incubated at 27 °C 110 rpm for 72 h. The cells were collected by centrifugation at 4000 × g for 15 min and the cell pellet was resuspended in lysis buffer (50 mM HEPES pH 7.5, 300 mM NaCl, 10% glycerol, 1 mM MgCl2, 1 mM TCEP, 5 mM imidazole), then supplemented with 1:10,000 benzonase (Sigma, E1014), 1 tablet/25 mL […]™ Protease Inhibitor Cocktail tablets (Sigma, S8830) and 1 mM PMSF before lysed by sonication at 4 °C. […] The protein elution was incubated with TEV protease to remove His tag at 4 °C overnight. Then the sample was diluted 1:6 in buffer (50 mM HEPES pH 7.5, 1 mM TCEP, 5% glycerol) and loaded onto a 5 mL pre-packaged Q HP anion exchange column (Cytiva, HiTrap Q HP) pre-equilibrated with QA buffer (50 mM HEPES pH 7.5, 50 mM NaCl, 1 mM TCEP, 5% glycerol). The unphosphorylated and phosphorylated protein was separated by eluting the protein with a very shallow gradient with 0-30% buffer QB (50 mM HEPES pH 7.5, 1 M NaCl, 1 mM TCEP, 5% glycerol) over 80 CV. Different peaks were collected separately and verified by LC-MS. The fully phosphorylated fraction was collected and further purified by size exclusion chromatography (Cytiva, HiLoad 16/600 Superdex 200 pg,) with SEC buffer (25 mM HEPES pH 7.5, 250 mM NaCl, 1 mM TCEP, 10% glycerol) and fractioned as monomeric peak. The rest protein fraction from the Q HP anion exchange column was incubated with Lambda protein phosphatase (New England BioLabs, P0753S) overnight at 4 °C, the dephosphorylation was confirmed by LC-MS. The unphosphorylated protein was further purified by size exclusion chromatography with the SEC buffer described above. The purified phosphorylated (p-IRE1α) and dephosphorylated (IRE1α) protein aliquots were stored at −80 °C for future usage.
The dual-labeled RNA substrate with a FAM at 5’ and the BHQ-1 at 3’ containing the XBP1 sequence (5′FAM-[…]-3′BHQ1) was purchased from Integrated DNA Technologies (IDT). The FRET-based IRE1α RNase activity assay was carried out in reaction buffer containing 20 mM HEPES pH 7.5, 50 mM KOAc, 1 mM MgOAc2, 1 mM DTT, 0.05% v/v TritonX-100, at a total reaction volume of 20 μL in a 384-well black plate (4514, Corning). For unphosphorylated IRE1α (IRE1α), a final concentration of 40 nM IRE1α protein and 100 nM RNA substrate was used. For phosphorylated IRE1 (p-IRE1α), a final concentration of 4 nM p-IRE1α protein and 200 nM RNA substrate was used. The indicated compound and IRE1α protein were incubated for 30 min at room temperature before the substrate was added to the reaction. The plate was then kinetically read over one hour at room temperature using a TECAN Spark plate reader. The measurement was carried out using the fluorescence top reading mode at the excitation wavelength of 485 nm and the emission wavelength of 535 nm with a 10 nm excitation and emission bandwidth. The linear part of the reaction curve was adopted and fitted with sample linear regression to obtain the slope, and the slope was adopted to reflect the reaction rate. The inhibition % was calculated by using the equation: inhibition% = 100 × (slope of DMSO control – slope of the sample)/(slope of DMSO control – slope of blank control), DMSO control: DMSO with protein and RNA substrate; Blank control: DMSO with RNA substrate. The IC50 values were calculated using the concentration-response model in GraphPad Prism 9. […]

[2] = molecular target: T2, phosphorylated IRE1α (p-IRE1α) (Homo sapiens, UniProt O75460); assay: FRET-based IRE1α RNase activity assay, phosphorylated IRE1α; assay type: biochemical; conditions: for inhibition at 50 µM: FRET assay at 50 μM, mean (± SEM), read-out: p-IRE1α inhibition%
T2 construct: Human IRE1α kinase and RNase domain (residues 547–977) was subcloned into pLIB plasmid; His tag (with TEV cleavage site) (N, cleaved yes); made in house; host or cells: Sf9 insect cells, baculovirus (Bac-to-Bac)
T2 sequence (O75460 547-977): as above
Description: as §1
The dual-labeled RNA substrate with a FAM at 5’ and the BHQ-1 at 3’ containing the XBP1 sequence (5′FAM-[…]-3′BHQ1) was purchased from Integrated DNA Technologies (IDT). The FRET-based IRE1α RNase activity assay was carried out in reaction buffer containing 20 mM HEPES pH 7.5, 50 mM KOAc, 1 mM MgOAc2, 1 mM DTT, 0.05% v/v TritonX-100, at a total reaction volume of 20 μL in a 384-well black plate (4514, Corning). For unphosphorylated IRE1α (IRE1α), a final concentration of 40 nM IRE1α protein and 100 nM RNA substrate was used. For phosphorylated IRE1 (p-IRE1α), a final concentration of 4 nM p-IRE1α protein and 200 nM RNA substrate was used. The indicated compound and IRE1α protein were incubated for 30 min at room temperature before the substrate was added to the reaction. The plate was then kinetically read over one hour at room temperature using a TECAN Spark plate reader. The measurement was carried out using the fluorescence top reading mode at the excitation wavelength of 485 nm and the emission wavelength of 535 nm with a 10 nm excitation and emission bandwidth. The linear part of the reaction curve was adopted and fitted with sample linear regression to obtain the slope, and the slope was adopted to reflect the reaction rate. The inhibition % was calculated by using the equation: inhibition% = 100 × (slope of DMSO control – slope of the sample)/(slope of DMSO control – slope of blank control), DMSO control: DMSO with protein and RNA substrate; Blank control: DMSO with RNA substrate. The IC50 values were calculated using the concentration-response model in GraphPad Prism 9.

With `COC(=O)CCCc1c(C)n(C(=O)c2ccc(Cl)cc2)c2ccc(OC)cc12` [cms06] the inhibition at 50 µM [1] was < 30% and the inhibition at 50 µM [2] was < 30%.
For `COc1ccc2c(c1)c(CC(=O)OC(C)C)c(C)n2C(=O)c1ccc(Cl)cc1` [cms07], the inhibition at 50 µM [1] was < 30% and the inhibition at 50 µM [2] was < 30%.
For `COc1ccc2c(c1)c(C(C)=O)c(C)n2C(=O)c1ccc(Cl)cc1` [cms08], the inhibition at 50 µM [1] was < 30% and the inhibition at 50 µM [2] was < 30%.
In the case of `COc1ccc2c(c1)c(Cc1ccccc1)c(C)n2C(=O)c1ccc(Cl)cc1` [cms09], the inhibition at 50 µM [1] was < 30% and the inhibition at 50 µM [2] was < 30%.
For `COc1ccc2c(c1)c(Cc1ccc(O)cc1)c(C)n2C(=O)c1ccc(Cl)cc1` [cms10], the inhibition at 50 µM [1] was < 30% and the inhibition at 50 µM [2] was < 30%.
In the case of `COc1ccc2c(c1)c(CC(=O)N1CCOCC1)c(C)n2C(=O)c1ccc(Cl)cc1` [cms11], the inhibition at 50 µM [1] was < 30% and the inhibition at 50 µM [2] was < 30%.
In the case of `COc1ccc2c(c1)c(CC(=O)O)c(C)n2C(=O)c1ccc(N(C)C)cc1` [idm06], the “Inhibiton% @ 50 Μm” value ([1]; IRE1a, @ 50 Μm, individual replicates (n1-n3), Supplementary Fig. 2a) was 31.43% and 32.06% and 32.96% and 41.19% and 38.68%, the “Inhibiton% @ 50 Μm, mean” value ([1]; IRE1a, @ 50 Μm, mean, Supplementary Fig. 2a) was 35.27% and the “Inhibiton% @ 50 Μm” value ([2]; p-IRE1a, @ 50 Μm, individual replicates (n1-n3), Supplementary Fig. 2a) was 36.04% and 36.79% and 33.53% and 36.40% and 23.29% and 29.46%. The “Inhibiton% @ 50 Μm, mean” value ([2]; p-IRE1a, @ 50 Μm, mean, Supplementary Fig. 2a) was 32.58%.
